Key:
[1] = tested on: NIH3T3 fibroblasts; experiment: Inhibition test of compounds on NIH3T3 fibroblasts (MTT method); type: cell-based; settings: Mus musculus, relative IC50 obtained from multiple and IC50 of fluorofenidone on a certain plate
Method: Inhibition Test of Compounds on NIH3T3 fibroblasts
An MTT method is used and comprises steps of: culturing cells in DMEM culture medium including 5% calf serum and preparing the cells into cell suspension of 3×10^4/ml; inoculating in 96-well plate according to 100 μl/well; transferring new culture medium including compounds with different concentration, fluorofenidone and 1% calf serum after cells are adhered, wherein three repeated wells are provided for each concentration; respectively adding 100 μl of MTT solution in each well after 48 hours and 72 hours of administrating (the culture medium is prepared into 5 mg/ml and kept in dark after filtering), sucking out MTT after 4 hours; adding 150 μl of DMSO which is the dissolving liquid of MTT; after 10 min and MTT is completely dissolved, measuring OD value by ELISA reader; calculating IC50 values of fluorofenidone and measured compounds according to inhibition ratio; calculating multiple of activities of measured compounds and fluorofenidone according to IC50 values of fluorofenidone and measured compounds; and obtaining relative IC50 value of measured compounds according to multiple and IC50 value of fluorofenidone on a certain plate.

[2] = tested on: rat unilateral ureteral obstruction renal fibrosis model; experiment: Treatment effect in a rat unilateral ureteral obstruction renal fibrosis model (HE and Masson staining); type: in vivo
Method: Observation of Treatment Effect of Compound 13 in a Rat Unilateral Ureteral Obstruction Renal Fibrosis Model
Nine male SD rats of 188-213 g, coming from Hunan Slac Laboratory Animals Co., Ltd., are illuminated for 12 hours every day; feed is provided by Shanghai Slac Laboratory Animals Co., Ltd.; and drinking water is provided by Department of Laboratory Animal Science of Central South University.
(1) Randomization: nine rats are divided into three groups at random, namely a normal group (n=3); a model group (n=3) and a treatment group (n=3) treated by compound 13 of 15 mg/kg; three rats are in a hutch; and the experimental animals are adaptively fed for two days. […]
HE stained slices of renal tissues are successively observed in fives fields of view of renal tubulointerstitium on upper left side, upper right side, lower left side, lower right side and middle portion by a low power lens and are evaluated according to eight indexes of renal interstitium lesion: renal tubular epithelial cell vacuolar degeneration, renal tubular ectasia, renal tubular atrophy, red cell cast, protein cast, interstitial edema, interstitial fibrosis and interstitial inflammatory cell infiltration; an average value is calculated as the index of renal tubulointerstitial lesion of the sample; and the evaluation standard is based on the reference of Radford M G Jr, Donadio J V Jr, Bergstralh E J, et al. Predicting renal outcome in IgA nephropathy. […]
Masson stained slices of renal tissues are observed in 20 fields of vision for each sample at random under 400× light microscope; percent of blue-stained collagens in the fields of vision is calculated; an average value is determined after semi-quantitative evaluation: no positive staining, 0; <25%, 1; 25-50%, 2; 50-75%, 3; >75%, 4; and the evaluation standard is based on references. […]

| Compound | IC50 ([1]; 48 hours after administration) [µM] | IC50 ([1]; 72 hours after administration) [µM] | Score (X ± S), renal interstitium collagens of left kidneys, MASSON staining ([2]; SD rats, UUO, 15 mg/kg intragastric once per day for 12 days, n=3, model group 2.45 ± 0.38, normal group 0.25 ± 0.00, p < 0.01 vs model) | Score (X ± S), index of renal tubulointerstitial lesions of obstruction kidneys, HE staining ([2]; SD rats, UUO, 15 mg/kg intragastric once per day for 12 days, n=3, model group 9.00 ± 1.00, normal group 0.33 ± 0.12, p < 0.01 vs model) | Treatment effect on renal fibrosis (conclusion) ([2]; rat UUO model, 15 mg/kg) |
| --- | --- | --- | --- | --- | --- |
| O=c1ccc(C(F)(F)F)cn1Cc1ccc([N+](=O)[O-])cc1 [Compound 1, 1-(4-nitrobenzyl)-5-(trifluoromethyl)pyridin-2(1H)-one] | 552 | 470 |  |  |  |
| Nc1ccc(Cn2cc(C(F)(F)F)ccc2=O)cc1 [Compound 2, 1-(4-amino-benzyl)-5-(trifluoromethyl)pyridin-2(1H)-one] | 1390 | 1510 |  |  |  |
| O=c1ccc(C(F)(F)F)cn1Cc1ccc(NCCCN2CCOCC2)cc1 [Compound 3, 1-(4-((3-morpholinylpropyl)amino)benzyl)-5-(trifluoromethyl)pyridin-2(1H)-one] | 424 | 229 |  |  |  |
| O=c1ccc(C(F)(F)F)cn1Cc1ccc(NCCCN2CCCCC2)cc1 [Compound 4, 1-(4-(((3-piperidin-1-yl)propyl)amino)benzyl)-5-(trifluoromethyl)pyridin-2(1H)-one] | 957 | 144 |  |  |  |
| CN1CCN(CCCNc2ccc(Cn3cc(C(F)(F)F)ccc3=O)cc2)CC1 [Compound 5, 1-(4-((3-(4-methyl-piperazin-1-yl)propyl)amino)benzyl)-5-(trifluoromethyl)pyridin-2(1H)-one] | 141 | 98 |  |  |  |
| O=c1ccc(C(F)(F)F)cn1Cc1ccc(NCCO)cc1 [Compound 6, 1-(4-((2-hydroxyethyl)amino)benzyl)-5-(trifluoromethyl)pyridin-2(1H)-one] | 1010 | 638 |  |  |  |
| O=c1ccc(C(F)(F)F)cn1Cc1ccc(NCCN2CCCCC2)cc1 [Compound 7, 1-(4-((2-(piperidyl-1-yl)ethyl)amino)benzyl)-5-(trifluoromethyl)pyridin-2(1H)-one] | 4180 | 340 |  |  |  |
| O=c1ccc(C(F)(F)F)cn1Cc1ccc(NCCN2CCOCC2)cc1 [Compound 8, 1-(4-((2-morpholinylethyl)amino)benzyl)-5-(trifluoromethyl)pyridin-2(1H)-one] | 367 | 229 |  |  |  |
| CN1CCN(CCNc2ccc(Cn3cc(C(F)(F)F)ccc3=O)cc2)CC1 [Compound 9, 1-(4-((2-(4-methyl-piperazin-1-yl)ethyl)amino)benzyl)-5-(trifluoromethyl)pyridin-2(1H)-one] | 181 | 120 |  |  |  |
| O=c1ccc(C(F)(F)F)cn1Cc1ccc(NCCN2CCN(CCO)CC2)cc1 [Compound 11, 1-(4-((2-(4-(2-hydroxyethyl)piperazin-1-yl)ethyl)amino)benzyl)-5-(trifluoromethyl)pyridin-2(1H)-one] | 526 | 131 |  |  |  |
| CC(=O)Nc1ccc(Cn2cc(C(F)(F)F)ccc2=O)cc1 [Compound 13, 1-(4-acetamide-benzyl)-5-(trifluoromethyl)pyridin-2(1H)-one] | 128 | 68 | 1.52 ± 0.16^⋆⋆** | 7.00 ± 0.35^⋆⋆** | can effectively treat renal fibrosis |
| O=c1ccc(C(F)(F)F)cn1Cc1c(Cl)cccc1Cl [Compound 14, 1-(2,6-dichlorobenzyl)-5-(trifluoromethyl)pyridin-2(1H)-one] | 346 | 182 |  |  |  |
| O=c1ccc(C(F)(F)F)cn1Cc1ccc(F)cc1 [Compound 15, 1-(4-fluorobenzyl)-5-(trifluoromethyl)pyridin-2(1H)-one] | 1080 | 1090 |  |  |  |
| O=c1ccc(C(F)(F)F)cn1Cc1ccccc1[N+](=O)[O-] [Compound 16, 1-(2-nitrobenzyl)-5-(trifluoromethyl)pyridin-2(1H)-one] | 1040 | 1030 |  |  |  |
| Nc1ccccc1Cn1cc(C(F)(F)F)ccc1=O [Compound 17, 1-(2-aminobenzyl)-5-(trifluoromethyl)pyridin-2(1H)-one] | 1810 | 1270 |  |  |  |
| O=c1ccc(C(F)(F)F)cn1Cc1cccc(Cl)c1 [Compound 18, 1-(3-chlorobenzyl)-5-(trifluoromethyl)pyridin-2(1H)-one] | 1460 | 1350 |  |  |  |
| COc1ccc(Cn2cc(C(F)(F)F)ccc2=O)cc1 [Compound 19, 1-(4-methoxybenzyl)-5-(trifluoromethyl)pyridin-2(1H)-one] | 301 | 384 |  |  |  |
| O=c1ccc(C(F)(F)F)cn1Cc1ccccc1F [Compound 20, 1-(2-fluorobenzyl)-5-(trifluoromethyl)pyridin-2(1H)-one] | 273 | 393 |  |  |  |
| O=c1ccc(C(F)(F)F)cn1Cc1ccccc1NCCO [Compound 21, 1-(2-(2-hydroxyethylamino)benzyl)-5-(trifluoromethyl)pyridin-2(1H)-one] | 664 | 587 |  |  |  |
| O=c1ccc(C(F)(F)F)cn1Cc1ccccc1NCCN1CCNCC1 [Compound 22, 1-(2-(2-(piperazin-1-yl)ethylamino)benzyl)-5-(trifluoromethyl)pyridin-2(1H)-one] | 168 | 291 |  |  |  |
| O=c1ccc(C(F)(F)F)cn1Cc1ccccc1NCCN1CCOCC1 [Compound 25, 1-(2-(2-morpholinoethylamino)benzyl)-5-(trifluoromethyl)pyridin-2(1H)-one] | 368 | 264 |  |  |  |
| Cc1ccc(=O)n(-c2cccc(F)c2)c1 [Fluorofenidone, reference compound] | 4430 | 3520 |  |  |  |
| O=c1ccc(C(F)(F)F)cn1Cc1ccccc1 [Structure IV, reference compound] | 1160 | 729 |  |  |  |

— patent US8377932B2, “Preparation of 1-(substituted benzyl)-5-trifluoromethyl-2(1H)pyridone compounds and salts thereof and their applications” (Central South University, priority 2009, dated 2013)
